Reference: patent US8524949B2, “Agomelatine hydrohalide complex and preparation method thereof” (Les Laboratories Servier, priority 2009, dated 2013)
Converted amounts (≈) assume the structure as drawn.

Test: Water solubility, HPLC with external standard
Format: physicochemical

With COc1ccc2cccc(CCNC(C)=O)c2c1 [Agomelatine, N-[2-(7-methoxy-1-naphthyl)ethyl]-acetamide] as the compound, how does the solubility read?
The solubility was 1110 µg/mL (≈ 4.56 mM).
